In the Kinase Knowledgebase extract (Sharma et al. 2016):
Where “and” joins values, the source holds several entries; their conditions need not be identical. Equal entries are not always repeated.

Experiments:
[1] = target: CDK2 (UniProt P24941); test: Enzyme Assay
[2] = target: EGFR (UniProt P00533)
[3] = target: EGFR (UniProt P00533); remark: listed apart in the source
[4] = target: EGFR (UniProt P00533); remark: listed apart in the source
[5] = target: EGFR (mouse) (UniProt P00533); settings: nih3t3

Sequence of EGFR (P00533 whole entry, looked up): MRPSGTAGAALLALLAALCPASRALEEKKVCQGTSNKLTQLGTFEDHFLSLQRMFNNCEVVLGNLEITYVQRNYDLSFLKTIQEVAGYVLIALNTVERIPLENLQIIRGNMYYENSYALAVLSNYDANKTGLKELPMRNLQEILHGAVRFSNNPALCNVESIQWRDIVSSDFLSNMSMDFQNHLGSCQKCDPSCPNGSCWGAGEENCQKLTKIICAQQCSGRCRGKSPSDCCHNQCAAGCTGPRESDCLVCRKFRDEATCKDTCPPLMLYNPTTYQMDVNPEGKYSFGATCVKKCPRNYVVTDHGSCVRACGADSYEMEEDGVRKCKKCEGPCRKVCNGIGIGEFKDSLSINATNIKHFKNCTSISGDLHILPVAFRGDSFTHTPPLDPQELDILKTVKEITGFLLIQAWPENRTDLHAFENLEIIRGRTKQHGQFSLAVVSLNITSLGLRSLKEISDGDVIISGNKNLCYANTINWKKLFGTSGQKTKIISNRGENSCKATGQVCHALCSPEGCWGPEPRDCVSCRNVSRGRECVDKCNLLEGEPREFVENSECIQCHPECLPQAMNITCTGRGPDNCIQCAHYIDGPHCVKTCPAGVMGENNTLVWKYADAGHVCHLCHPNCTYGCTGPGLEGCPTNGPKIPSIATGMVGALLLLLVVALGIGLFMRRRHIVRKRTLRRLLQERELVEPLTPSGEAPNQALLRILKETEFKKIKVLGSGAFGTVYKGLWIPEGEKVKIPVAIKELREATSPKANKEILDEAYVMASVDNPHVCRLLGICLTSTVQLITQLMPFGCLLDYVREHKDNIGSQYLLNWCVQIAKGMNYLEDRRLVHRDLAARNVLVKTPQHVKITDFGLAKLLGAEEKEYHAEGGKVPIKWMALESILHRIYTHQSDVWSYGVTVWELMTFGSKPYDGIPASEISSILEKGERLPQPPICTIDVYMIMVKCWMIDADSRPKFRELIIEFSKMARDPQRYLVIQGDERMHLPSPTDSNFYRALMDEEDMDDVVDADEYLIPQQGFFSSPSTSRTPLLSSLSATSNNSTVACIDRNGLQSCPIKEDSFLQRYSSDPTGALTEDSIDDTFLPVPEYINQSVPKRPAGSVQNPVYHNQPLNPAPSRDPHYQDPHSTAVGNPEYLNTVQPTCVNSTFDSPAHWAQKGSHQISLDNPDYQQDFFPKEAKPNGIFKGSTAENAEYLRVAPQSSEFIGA

| SMILES | IC50 [1] | IC50 [2] | IC50 [3] | IC50 [4] | IC50 [5] |
| --- | --- | --- | --- | --- | --- |
| COc1cc2c(cc1OC)/C(=C\c1c[nH]cn1)C(=O)N2 | 2.4 µM | – | – | – | – |
| Cc1cccc2c1/C(=C\c1c[nH]cn1)C(=O)N2 | 1.1 µM | – | – | – | – |
| COc1cccc(-c2ccc3c(c2)NC(=O)/C3=C\c2cc3c([nH]2)CCCC3)c1 | – | > 100 µM | 31.8 µM and > 50 µM | – | – |
| O=C(O)CCc1c(/C=C2\C(=O)Nc3cc(-c4ccccc4)ccc32)[nH]c2c1CCCC2 | – | > 100 µM | – | > 100 µM | – |
| Cc1ccc(Cn2nc(C)cc2C(=O)Nc2cccc(C(F)(F)F)c2)cc1 | – | – | 6.3 µM and 9.8 µM | – | – |
| CCc1cc(CC)c(/C=C2\C(=O)Nc3cc(-c4ccccc4)ccc32)[nH]1 | – | > 100 µM | > 50 µM | > 100 µM | – |
| CCOc1cccc(-c2ccc3c(c2)NC(=O)/C3=C\c2[nH]c(C)cc2C)c1 | – | > 100 µM | > 50 µM | > 100 µM | – |
| COc1ccc(NC(=O)c2cc(C(C)(C)C)nn2Cc2ccccc2)c(OC)n1 | – | – | > 100 µM | – | – |
| CC(C)(C)c1cc(C(=O)c2nccc3ccccc23)n(Cc2ccccc2)n1 | – | – | 22.5 µM | – | – |
| COc1ccc(-c2ccc3c(c2)NC(=O)/C3=C\c2cc3c([nH]2)CCCC3)cc1 | – | > 100 µM | > 50 µM | > 100 µM | – |
| COc1cccc(-c2ccc3c(c2)NC(=O)/C3=C\c2cnc[nH]2)c1 | – | > 100 µM | > 50 µM and 27.4 µM | > 100 µM | – |
| O=C1Nc2c(Br)cc(Cl)cc2/C1=C\c1c[nH]cn1 | 9.3 µM | – | – | – | – |
| Cc1cccnc1NC(=O)c1cc(C(C)(C)C)nn1Cc1ccccc1 | – | – | 53.4 µM | – | – |
| CC(C)(C)c1cc(C(=O)Nc2cccnc2)n(Cc2ccccc2)n1 | – | – | > 100 µM | – | – |
| COc1cccc(-c2ccc3c(c2)NC(=O)/C3=C\c2cc(C(C)C)c(OC)c(C(C)C)c2)c1 | – | > 100 µM | 13.7 µM | > 100 µM | – |
| CC(C)(C)c1cc(C(=O)Nc2ccc(C(F)(F)F)cc2)n(Cc2ccccc2)n1 | – | – | 15.6 µM | – | – |
| CC(=O)Nc1ccc2c(c1)C(=O)c1cc(NC(=O)c3cc(C(C)(C)C)nn3Cc3ccccc3)ccc1-2 | – | – | 4.4 µM | – | – |
| COc1cccc(-c2ccc3c(c2)NC(=O)/C3=C\c2[nH]c(C)cc2C)c1 | – | > 100 µM | > 50 µM and 27.3 µM | > 100 µM | – |
| COc1ccccc1-c1ccc2c(c1)NC(=O)/C2=C\c1[nH]c2c(c1CCC(=O)O)CCCC2 | – | > 100 µM | – | > 100 µM | – |

| SMILES | IC50 [1] | IC50 [2] | IC50 [3] | IC50 [4] | IC50 [5] |
| --- | --- | --- | --- | --- | --- |
| Cc1cc(C)c(/C=C2\C(=O)Nc3cc(-c4ccccc4)ccc32)[nH]1 | – | > 100 µM | > 50 µM | > 100 µM | – |
| CC(C)(C)c1cc(C(=O)Nc2ccc(O)c(-c3cccc(-c4ccccc4)c3)c2)n(Cc2ccccc2)n1 | – | – | > 50 µM | – | – |
| COc1ccccc1-c1ccc2c(c1)NC(=O)/C2=C\c1[nH]c(C)cc1C | – | > 100 µM | – | > 100 µM | – |
| CC(C)(C)c1cc(C(=O)Nc2cccc3c2C(=O)c2ccccc2-3)n(Cc2ccccc2)n1 | – | – | > 50 µM | – | – |
| Cc1cnc2ccccc2c1NC(=O)c1cc(C(C)(C)C)nn1Cc1ccccc1 | – | – | 21.2 µM | – | – |
| CC(C)(C)c1cc(C(=O)Nc2ccc3oc(=O)c4ccccc4c3c2)n(Cc2ccccc2)n1 | – | – | 43 µM | – | – |
| COc1ccc(-c2ccc3c(c2)NC(=O)/C3=C\c2[nH]c(C)cc2C)cc1 | – | > 100 µM | > 50 µM | > 100 µM | – |
| O=C1Nc2cc(-c3ccccc3)ccc2/C1=C/c1cc2c([nH]1)CCCC2 | – | > 100 µM | > 50 µM | > 100 µM | – |
| CC(C)(C)c1cc(C(=O)Nc2ccc3c(c2)OCO3)n(Cc2ccccc2)n1 | – | – | 50.1 µM | – | – |
| COc1ccc(NC(=O)c2cc(C(C)(C)C)nn2Cc2ccccc2)cc1-c1ccccc1 | – | – | > 50 µM | – | – |
| Cc1ccc(/C=C2\C(=O)Nc3cc(-c4ccccc4)ccc32)s1 | – | > 100 µM | > 50 µM | > 100 µM | – |
| O=C1Nc2ccc(Cl)cc2/C1=C\c1c[nH]cn1 | < 0.78 µM | – | – | – | – |
| Cc1cc(/C=C2/C(=O)Nc3ccccc32)c(C)c2c1[nH]c1ccccc12 | – | – | 7.03 µM | – | > 100 µM |
| CCn1c2ccccc2c2cc(NC(=O)c3cc(C(C)(C)C)nn3Cc3ccccc3)ccc21 | – | – | > 50 µM | – | – |
| Cc1ccnc(NC(=O)c2cc(C(C)(C)C)nn2Cc2ccccc2)c1 | – | – | 50.1 µM | – | – |
| COc1c(C(C)C)cc(/C=C2\C(=O)Nc3cc(-c4ccccc4)ccc32)cc1C(C)C | – | > 100 µM | – | > 100 µM | – |
| CCOc1cccc(-c2ccc3c(c2)NC(=O)/C3=C\c2ccc(C)s2)c1 | – | > 100 µM | > 50 µM | > 100 µM | – |
| CCOc1cccc(-c2ccc3c(c2)NC(=O)/C3=C\c2cc(C(C)C)c(OC)c(C(C)C)c2)c1 | – | > 100 µM | 19.6 µM | > 100 µM | – |
